These results are taken from PMC6933938, “Comparative physiological, metabolomic, and transcriptomic analyses reveal developmental stage-dependent effects of cluster bagging on phenolic metabolism in Cabernet Sauvignon grape berries” (BMC Plant Biology, 2019).

In this assay the target is T1, VviFLS4 (Vitis vinifera, UniProt Q2PHJ7).
T1 construct: gene FLS4; pET-48b(+), printed as C-terminal 6xHis tag fusion; E. coli BL21(DE3), Ni2+ column; tag removal not mentioned
T1 sequence (Q2PHJ7 1-335): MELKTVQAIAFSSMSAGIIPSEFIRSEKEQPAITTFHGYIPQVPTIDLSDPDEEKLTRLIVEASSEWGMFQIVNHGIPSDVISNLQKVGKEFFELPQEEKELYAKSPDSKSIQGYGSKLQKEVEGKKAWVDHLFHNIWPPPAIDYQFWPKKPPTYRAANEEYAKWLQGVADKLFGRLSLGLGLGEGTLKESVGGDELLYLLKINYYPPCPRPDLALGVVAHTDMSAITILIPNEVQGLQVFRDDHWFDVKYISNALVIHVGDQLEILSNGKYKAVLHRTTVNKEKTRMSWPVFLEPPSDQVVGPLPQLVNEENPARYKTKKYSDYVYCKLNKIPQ
The experiment in a line: HPLC-MS product analysis. Type of assay: biochemical. The settings on record: converted to kaempferol; 0.5 uM substrate, 10 mM alpha-ketoglutaric acid, 0.25 mM FeSO4, 10 mM ascorbic acid, 100 mM NaH2PO4 pH 6.0, 25 C, 1 h.

`O=C1c2c(O)cc(O)cc2O[C@H](c2ccc(O)cc2)[C@H]1O` [dihydrokaempferol]: the HPLC-MS product analysis entry was “DHK into kaempferol, and dihydroquercetin (DHQ) into quercetin, respectively”.
